Entries after “also recorded” stand apart in the source; their conditions may differ. Residues, ends and D or L forms follow the SMILES beside them. *: point of attachment. Cbz = O=C(OCc1ccccc1)*
How the values were obtained:
EWSR1::FLI1 [1] = experiment: qRT-PCR of EWSR1::FLI1 expression in A673 cells; assay type: cell-based, human; conditions: compound at 2.5-10 μM for 48 hours, FIGS. 6B-6C
Procedure: (§1) Total RNA was isolated from cells using Trizol (Invitrogen, Cat #15596). cDNA was synthesized using Proto Script II reverse transcription kit (New England Biolabs (NEB), Ipswich, MA, Cat #E6560) and real-time PCR reactions were performed using Quant Studio 3 (Applied Biosystems by Thermo Fisher Scientific) using primer sequences listed in Table 2. Gene expression was normalized to that of GAPDH. A control without reverse transcription (no-RT control) was carried out in parallel to rule out the possibility of DNA contamination. The experiments were performed three independent times.
(§2) In the experiment in FIG. 5D, cells were treated with 10 μM ketoconazole (Sigma, Cat #PHR1385; CAS No. 65277-42-1) for 72 hours. Dimethyl sulfoxide (DMSO) was used as vehicle control.

EWSR1::FLI1 [2] = experiment: Immunoblot of EWSR1::FLI1 protein levels (anti-FLI1 antibody) in A673 cells; assay type: cell-based, human; conditions: compound at 2.5-10 μM for 48 hours, FIGS. 6B-6C
Procedure: Cells extracts were prepared in radioimmunoprecipitation assay (RIPA) buffer (1% Triton-X100, 0.1% sodium dodecyl sulfate (SDS), 0.5% deoxycholic acid, 20 mM tris(hydroxymethyl)aminomethane (Tris), pH 7.5, 10% glycerol) containing 1× complete ethylenediaminetetraacetic acid (EDTA)-free protease inhibitor cocktail (Roche, Basel, Switzerland, Cat #11873580001) and 1 mM phenylmethylsulfonyl fluoride (PMSF). For the immunoblot in FIG. 7L, cells expressing FLAG-SMO (wild-type and mutants) were treated with 10 μM MG132 (Selleck Chemicals, Houston, TX, Cat #S2619; CAS No. 1211877-36-9) for 12 hours or 100 nM bafilomycin A1 (Selleck Chemicals, Cat #S1413; CAS No. 88899-55-2) for 6 hours. Total cell lysates (30 μg) were subjected to SDS-polyacrylamide gel electrophoresis (PAGE) and transferred to nitrocellulose membrane, which were blocked with 5% non-fat dry milk, and incubated with the following antibodies overnight at 4° C.: anti-C1GALT1 (1:1000 dilution; Santa Cruz Biotechnology, Dallas, TX, Cat #SC-100745), anti-FLI1 (1:2000 dilution; Abcam, Cambridge, United Kingdom, Cat #ab 133485), anti-EWSR1 (1:1000 dilution; Sigma Aldrich, Cat #HPA051771), anti-GLI1 (1:1000 dilution; Cell Signaling Technology, Danvers, MA, Cat #2553), anti-GLI2 (1:500 dilution; Abcam, Cat #ab187386), anti-PARP1 (1:500 dilution; Santa Cruz Biotechnology, Cat #SC-8007), anti-SMO (1:2000 dilution; Abcam, Cat #ab236465), anti-β-actin (1:2000 dilution; Sigma, Cat #A2228), anti-GAPDH (1:2000 dilution; Abcam, Cat #ab8245) or anti-FLAG M2 (1:1000 dilution; Sigma, Cat #F1804). The blots were imaged by exposing to x-ray film. The experiments were conducted three independent times, and the results from one representative experiment are shown.
as §2

SMO and GLI1 = experiment: Immunoblot and qRT-PCR of SMO and GLI1 in NIH 3T3 cells; assay type: cell-based, mouse; conditions: FIG. 7E
Procedure: as §1
(§3) Cells extracts were prepared in radioimmunoprecipitation assay (RIPA) buffer (1% Triton-X100, 0.1% sodium dodecyl sulfate (SDS), 0.5% deoxycholic acid, 20 mM tris(hydroxymethyl)aminomethane (Tris), pH 7.5, 10% glycerol) containing 1× complete ethylenediaminetetraacetic acid (EDTA)-free protease inhibitor cocktail (Roche, Basel, Switzerland, Cat #11873580001) and 1 mM phenylmethylsulfonyl fluoride (PMSF). For the immunoblot in FIG. 7L, cells expressing FLAG-SMO (wild-type and mutants) were treated with 10 μM MG132 (Selleck Chemicals, Houston, TX, Cat #S2619; CAS No. 1211877-36-9) for 12 hours or 100 nM bafilomycin A1 (Selleck Chemicals, Cat #S1413; CAS No. 88899-55-2) for 6 hours. […]

SMO = experiment: Immunoblot and qRT-PCR of SMO in A673 cells; assay type: cell-based, human; conditions: 100 nM ITZ for 72 hours plus MG132 or BafA1, FIG. 7K
Procedure: as §1, §3

[3] = tested on: FLAG-SMO (T55A) and FLAG-SMO (T500A); experiment: Immunoblot of FLAG-SMO mutants stably expressed in A673 cells; assay type: cell-based, human; conditions: 10 μM MG132 for 12 hours or 100 nM bafilomycin A1 for 6 hours, FIG. 7L
Excerpt: To generate cell lines stably ectopically expressing EWSR1::FLI1 (also referred to as EWS-FLI1, EWS::FLI1, or EWSR1-FLI1), TC-71 or NIH 3T3 cells were transduced with the lentiviral expression plasmid pCDH-puro-EWS-FLI1 or, as a control, pCDH-CMV-MCS-EFla-Puro and cells were selected with puromycin for five days. NIH 3T3 cells stably expressing SMO were generated by transduction of pHAGE-SMO or, as a control, pHAGE puro. NIH 3T3 cells stably expressing C1GALT1 were generated by transduction of C1GALT1-expression plasmid EX-W0494-Lv120 or, as a control, EX-EGFP-Lv120. A673 cell lines stably expressing FLAG-tagged wild-type SMO, FLAG-SMO (T55A), or FLAG-SMO (T500A) used lentiviral plasmids synthesized by GenScript in the pGenLenti vector.
Cells extracts were prepared in radioimmunoprecipitation assay (RIPA) buffer (1% Triton-X100, 0.1% sodium dodecyl sulfate (SDS), 0.5% deoxycholic acid, 20 mM tris(hydroxymethyl)aminomethane (Tris), pH 7.5, 10% glycerol) containing 1× complete ethylenediaminetetraacetic acid (EDTA)-free protease inhibitor cocktail (Roche, Basel, Switzerland, Cat #11873580001) and 1 mM phenylmethylsulfonyl fluoride (PMSF). […]

[4] = tested on: FLAG-SMO (T55A) and FLAG-SMO (T500A); experiment: Ubiquitination immunoprecipitation assay in A673 cells; assay type: cell-based, human; conditions: A673 cells expressing HA-Ub; 10 μM MG132 or 100 nM bafilomycin A1 for 8 hours; FIG. 7M
Procedure: A673 cells stably expressing FLAG-tagged wild-type SMO, FLAG-SMO (T55A) or FLAG-SMO (T500A) were transfected with a plasmid expressing HA-tagged ubiquitin (HA-Ub; Addgene plasmid #18712 (Kamitani et al., 1997) and treated in the presence or absence of 10 μM MG132 for 8 hours or 100 nM bafilomycin A1 for 8 hours. Cell lysates were incubated with either an anti-HA magnetic beads (Sigma, Cat #SAE0197) or anti-FLAG M2 magnetic beads (Sigma, Cat #M8823), and immunoprecipitated proteins were detected using an anti-FLAG M2 (1:1500 dilution; Sigma, Cat #F1804) or anti-HA (1:1500 dilution; Cell Signaling Cat #2367) antibody.

[5] = tested on: FLAG-SMO (T55A) and FLAG-SMO (T500A); experiment: Immunoblot of FLAG-SMO mutants stably expressed in TC-71 cells; assay type: cell-based, human; conditions: FIG. 9F
Procedure: as §3

EWSR1::FLI1/ERG = experiment: qRT-PCR and immunoblot of EWSR1::FLI1/ERG in TC-71, TC-32 and TC-106 cells; assay type: cell-based, human; conditions: 48 hours, FIG. 9D
[6] = Animal weight / tolerability in xenograft-bearing mice; conditions: mice with TC-71, TC-32 or TC-106 xenografts; 100 mg/kg; FIG. 11G
Procedure: A673, TC-71, TC-106, or TC-32 cells (5×10^6) were suspended in PBS and […] ® extracellular matrix (Corning Cat #356234) in a 1:1 ratio, and subcutaneously injected into the right flank of 6-7 week old NOD scid gamma (NSG) immunocompromised mice (n=3 for each vehicle or drug treatment). Tumor dimensions were measured every 3 days with calipers, and the tumor volume was calculated using the formula volume=width^2× length/2.

[7] = tested on: EWSR1::FLI1^tdTomato reporter; experiment: Flow cytometry of tdTomato in A673/EWSR1::FLI1^tdTomato/Cas9/EGFP reporter cells; assay type: cell-based, human; conditions: 10 μM for 72 hours; FIG. 5D
Procedure: To confirm that knockdown of EWSR1::FLI1 would reduce tdTomato fluorescence, A673/EWSR1::FLI1^tdTomato cells (1×10^5 cells/well in a 6-well plate) were infected with lentiviral particles expressing a non-silencing (NS), EWSR1, or FLI1 short hairpin RNA (shRNA) (Table 3), selected with 2 μg/ml puromycin for 5 days, and analyzed by flow cytometry using a BD LSRII flow cytometer (BD Biosciences). A673/EWSR1::FLI1^tdTomato cells were then infected with lentiviral particles expressing the plasmid lentiCas9-Blast (a gift from Feng Zhang; Addgene plasmid #52962; (Sanjana et al., 2014)) and selected with 3 μg/ml blasticidin for 7 days. Cas9 activity was confirmed by transducing A673/EWSR1::FLI1^tdTomato/Cas9 cells with the lentiviral vector pXPR_011 (a gift from John Doench and David Root; Addgene plasmid #59702; (Doench et al., 2014)), which carries a puromycin resistance marker and includes an enhanced green fluorescent protein (EGFP, also referred to as GFP) reporter gene and an sgRNA sequence specifically targeting the EGFP gene, followed by selection with 2 μg/ml puromycin for 5 days and analysis of EGFP by flow cytometry. Finally, A673/EWSR1::FLI1^tdTomato/Cas9 cells were infected with lentiviral particles expressing the plasmid pLenti CMV EGFP Blast (659-1) (a gift from Eric Campeau and Paul Kaufman; Addgene plasmid #17445 (Campeau et al., 2009)). […]

C1GALT1 = C1GALT1 (Homo sapiens, UniProt Q9NS00); conditions: previous studies (Lin et al., 2018); cited from earlier work
Chain of C1GALT1 (Q9NS00 whole entry): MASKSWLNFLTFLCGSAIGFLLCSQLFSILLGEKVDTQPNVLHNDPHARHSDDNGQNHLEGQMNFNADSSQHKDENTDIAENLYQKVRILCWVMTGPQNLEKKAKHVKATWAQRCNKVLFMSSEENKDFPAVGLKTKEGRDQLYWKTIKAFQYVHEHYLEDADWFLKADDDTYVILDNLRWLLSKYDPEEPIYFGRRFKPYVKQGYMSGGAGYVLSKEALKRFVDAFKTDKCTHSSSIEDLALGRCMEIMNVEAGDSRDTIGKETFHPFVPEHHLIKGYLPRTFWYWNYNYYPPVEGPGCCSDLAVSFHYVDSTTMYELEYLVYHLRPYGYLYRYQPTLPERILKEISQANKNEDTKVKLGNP

CN(C)c1ccccc1CN1CCCN(Cc2ccccc2N(C)C)C1c1ccncc1 [GANT-61]
EWSR1::FLI1 mRNA levels (EWSR1::FLI1 [1]): dose-dependent reduction | EWSR1::FLI1 protein levels (EWSR1::FLI1 [2]): dose-dependent reduction

CNC1CCC(N(Cc2cccc(-c3ccncc3)c2)C(=O)c2sc3ccccc3c2Cl)CC1.Cl (stereo not shown) [SAG, Smoothened Agonist hydrochloride]
EWSR1::FLI1 mRNA levels (EWSR1::FLI1 [1]): dose-dependent increase | EWSR1::FLI1 protein levels (EWSR1::FLI1 [2]): dose-dependent increase | levels of SMO and GLI1 (SMO and GLI1): increased levels

CO/C1=C\C(C)=C\[C@@H](C)[C@@H](O)[C@@H](C)C/C(C)=C/C=C/[C@H](OC)[C@@H]([C@@H](C)[C@@H](O)[C@H](C)[C@@]2(O)C[C@@H](O)[C@H](C)[C@@H](C(C)C)O2)OC1=O [bafilomycin A1]
reduction in SMO levels observed upon ITZ treatment (SMO): reversed | expression of SMO (T55A) and SMO (T500A) mutant proteins [3]: restored | ubiquitination of SMO (T55A) and SMO (T500A) [4]: detected | stability of O-GalNAc-glycosylation-defective SMO mutants [5]: restored

CC(C)C[C@@H](C=O)NC(=O)[C@H](CC(C)C)NC(=O)[C@H](CC(C)C)NC(=O)OCc1ccccc1 [MG132] (Cbz-Leu-Leu-Leu-aldehyde)
reduction in SMO levels observed upon ITZ treatment (SMO): reversed | expression of SMO (T55A) and SMO (T500A) mutant proteins [3]: restored | ubiquitination of SMO (T55A) and SMO (T500A) [4]: detected | stability of O-GalNAc-glycosylation-defective SMO mutants [5]: restored

CCC(C)n1ncn(-c2ccc(N3CCN(c4ccc(OCC5COC(Cn6cncn6)(c6ccc(Cl)cc6Cl)O5)cc4)CC3)cc2)c1=O (stereo not shown) [ITZ, itraconazole]
EWSR1::FLI1/ERG expression (EWSR1::FLI1/ERG): reduced | animal weight [6]: absence of weight loss

CC(=O)N1CCN(c2ccc(OCC3COC(Cn4ccnc4)(c4ccc(Cl)cc4Cl)O3)cc2)CC1 (stereo not shown) [ketoconazole]
EWSR1::FLI1 expression (EWSR1::FLI1^tdTomato reporter) [7]: does not reduce; also recorded: no effect; also recorded: did not result in reduced | inhibition of C1GALT1 (C1GALT1): not to inhibit; also recorded: does not inhibit

CC1=C2C[C@H]3[C@@H](CC=C4C[C@@H](O)CC[C@@]43C)[C@@H]2CC[C@]12O[C@@H]1C[C@H](C)CN[C@H]1[C@H]2C [cyclopamine]
EWSR1::FLI1 mRNA levels (EWSR1::FLI1 [1]): dose-dependent reduction | EWSR1::FLI1 protein levels (EWSR1::FLI1 [2]): dose-dependent reduction
